Holding throughout (experiment): Pull-down assay with immobilized protein and LSM libraries
One assay concerns the target T1, S100B (Homo sapiens, UniProt P04271).
T1 construct: made in house; host or cells: Escherichia coli BL21(DE3)
T1 sequence (P04271 1-92): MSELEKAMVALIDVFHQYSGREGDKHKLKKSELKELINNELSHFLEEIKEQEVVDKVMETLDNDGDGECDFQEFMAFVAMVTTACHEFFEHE
The assay is classed as binding. The settings on record: 1:1 binding assumed, read-out: Surface mapping KD (apparent). Summed up: (§1)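 Buffers were HEPES pH 7.4 with 150 mM NaCl, plus 1 mM TCEP and 1 mM CaCl2 (50 mM HEPES) for S100A4 and S100B, 1 mM TCEP for Gal-1, and no additive for RecQ-WH. Immobilized protein at 64 µM was equilibrated 30 min with the LSM sublibrary, and unbound probes were measured by LC-MS.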

The next assay concerns the target T2, CaM (Bos taurus, UniProt P62157).
T2 construct: made in house; host or cells: E. coli BL21 (DE3)
The assay is classed as binding, bovine. The settings on record: 1:2 stoichiometry assumed, read-out: Surface mapping KD (apparent). On the procedure: Pull-down assays with immobilized test proteins and foldameric LSM libraries were carried out. Proteins were equilibrated with LSM probes, and equilibrium bound fractions (FB) were determined from the unbound fractions measured by HPLC-MS methods. Hits were corrected with background binding of the resin. The protocol allowed all binding events to equilibrate irrespective of affinity, specificity, and binding kinetics. This was essential to judge overall druggability and promiscuity. Importantly, the concentration of protein and the total concentration of foldameric LSMs were equimolar, which minimized competition between the probes. This experimental setup approximated independent binding of individual library members. Results were visualized as heat maps of dissociation constants (Fig. 3).
Pull-down assay and data analysis
Pull-down assay. LSM sublibraries were screened separately as previously described.(2) Experiments were performed in the following buffers: (i) 20 mM pH 7.4 HEPES, 150 mM NaCl, 5 mM CaCl2 for CaM; (ii) 50 mM pH 7.4 HEPES, 150 mM NaCl, 1 mM TCEP, 1 mM CaCl2 for S100 proteins; (iii) 20 mM pH 7.4 HEPES, 150 mM NaCl, 1 mM TCEP for Gal-1 and (iv) 20 mM pH 7.4 HEPES, 150 mM NaCl for RecQ-WH. Assays were performed in paper filter spin cups (Thermo Scientific) with sample volumes of 100 µl. Hexahistidine-tagged proteins were immobilized on previously washed Co-NTA resin (TALON, Takara Bio USA, Inc., […]
LSM sublibrary was added, in which each of the 64 library members were used at a concentration of 1 µM. Samples were incubated at room temperature for 30 min with shaking at 100 rpm. Then, samples were centrifuged at 1000 rpm for 2 min and washed with 100 µl pull-down buffer to remove unbound compounds.
The control experiments were performed using the same compounds and the resin but without the immobilized protein. In case of competitive assays, competitor peptides were added to LSM sublibrary samples in 200 µM final concentration. In the case of Gal-1, lactose (competitor) was used in a concentration of 10 mM. Experiments were performed at least twice. Mean […]
LC-MS methods and parameters. HPLC/ESI-MS analysis was used to characterize the samples from the pull-down assay. LC-MS analysis was performed with a Thermo Scientific Dionex UltiMate 3000 HPLC system interfaced to an LTQ ion trap mass spectrometer (Thermo Electron Corp., San Jose, CA, USA). Samples were injected onto an Aeris Widepore XB-C18 (250 x 4.6 mm) analytical HPLC column using gradient elution 5-80 % solution B during 25 minutes. For pull-down samples, eluent composition was 0.1% acetic acid in distilled water (Solution A) and 0.1% acetic acid in acetonitrile (solution B). Mass spectra were acquired in full scan mode from 200 to 2000 m/z range. For overlapping peaks, selective reaction monitoring (SRM) was […]
MS data analysis. Thermo Xcalibur 2.2 software was used for peak identification and integration. The majority of the foldameric fragments could be resolved independently via HPLC-MS/MS measurements based on molecular weight, MS fragmentation pattern and retention time. Peaks of some foldamers with β3-hIle or β3-hLeu in position R2 could not be resolved, these were integrated and averaged. In the processing method, each sample component was associated to a chromatographic peak based on previously identified mass (m/z) and retention time (ref (2) and Table S7-10). Using ICIS peak detection algorithm, the general detection and integration criteria were: smoothing points: 5, baseline window: 80, area noise factor: 5, peak noise factor: 10. Using these processing setups, all raw data files were reprocessed together and analyzed. Errors in peak identification during the automatic processing were corrected manually.
Calculation of the discussed parameters
1. Bound fractions (FB.) were calculated from the HPLC-MS intensity loss of the LSM probes compared to the control where no protein was immobilized to the resin: […]

The next assay concerns the target T3, Gal-1 (Homo sapiens, UniProt P09382).
T3 construct: made in house; host or cells: E. coli BL21(DE3)
Format: binding. The settings on record: H14 library; 1:1 binding assumed; read-out: Surface mapping KD (apparent). The method, boiled down:
as §1

Each structure is given as a SMILES string. Read-outs that look alike come from different tables or passages of the source.

T3 sequence (P09382 whole entry): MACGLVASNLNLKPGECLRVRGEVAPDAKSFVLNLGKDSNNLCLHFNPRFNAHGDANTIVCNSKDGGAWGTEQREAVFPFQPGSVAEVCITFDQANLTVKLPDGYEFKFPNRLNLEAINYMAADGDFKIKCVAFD

On to `CC(C)C[C@@H](CC(=O)N[C@H]1CCC[C@@H]1C(=O)N[C@H]1CCC[C@@H]1C(N)=O)NC(=O)[C@H]1CCC[C@@H]1NC(=O)[C@H]1CCC[C@@H]1NC(=O)C[C@H](CO)NC(=O)[C@H]1CCC[C@@H]1NC(=O)[C@H]1CCC[C@@H]1N` [H12 SL], for which the Kd on S100B (H12 library) came out at 419 µM; on CaM (H12 library) it was 252 µM.

Regarding `C[C@@H](O)[C@@H](CC(=O)N[C@H]1CCC[C@@H]1C(=O)N[C@H]1CCC[C@@H]1C(=O)N[C@H](CC(=O)N[C@H]1CCC[C@@H]1C(=O)N[C@H]1CCC[C@@H]1C(N)=O)Cc1ccccc1)NC(=O)[C@H]1CCC[C@@H]1NC(=O)[C@H]1CCC[C@@H]1N` [H12 TF], the Kd on S100B (H12 library) turned out to be 185 µM; on CaM (H12 library) it was 90 µM.

Turning to `C[C@@H](O)[C@@H](CC(=O)N[C@H]1CCC[C@@H]1C(=O)N[C@H]1CCC[C@@H]1C(=O)N[C@@H](CCCNC(=N)N)CC(=O)N[C@H]1CCC[C@@H]1C(=O)N[C@H]1CCC[C@@H]1C(N)=O)NC(=O)[C@H]1CCC[C@@H]1NC(=O)[C@H]1CCC[C@@H]1N` [H12 TR], the figures for the Kd at S100B (H12 library) and at CaM (H12 library) were 286 µM and 282 µM, respectively.

`NCCCC[C@@H](CC(=O)N[C@H]1CCCC[C@@H]1C(=O)N[C@H]1CCCC[C@@H]1C(=O)N[C@@H](CO)CC(=O)N[C@H]1CCCC[C@@H]1C(N)=O)NC(=O)[C@H]1CCCC[C@@H]1N` [H14 KS]: the Kd on S100B (H14 library) turned out to be 217 µM; on CaM (H14 library), 262 µM.

Turning to `NCCCC[C@@H](CC(=O)N[C@H]1CCCC[C@@H]1C(=O)N[C@H]1CCCC[C@@H]1C(=O)N[C@@H](CCC(N)=O)CC(=O)N[C@H]1CCCC[C@@H]1C(N)=O)NC(=O)[C@H]1CCCC[C@@H]1N` [H14 KQ], the Kd was determined as 173 µM at S100B (H14 library) and 307 µM at CaM (H14 library).

With `NC(=O)C[C@@H](CC(=O)N[C@H]1CCC[C@@H]1C(=O)N[C@H]1CCC[C@@H]1C(=O)N[C@H](CC(=O)N[C@H]1CCC[C@@H]1C(=O)N[C@H]1CCC[C@@H]1C(N)=O)Cc1ccc(O)cc1)NC(=O)[C@H]1CCC[C@@H]1NC(=O)[C@H]1CCC[C@@H]1N` [H12 NY], the Kd at CaM (H12 library) was 364 µM.

As for `CC(C)[C@@H](CC(=O)N[C@H]1CCC[C@@H]1C(=O)N[C@H]1CCC[C@@H]1C(N)=O)NC(=O)[C@H]1CCC[C@@H]1NC(=O)[C@H]1CCC[C@@H]1NC(=O)C[C@@H](NC(=O)[C@H]1CCC[C@@H]1NC(=O)[C@H]1CCC[C@@H]1N)[C@@H](C)O` [H12 TV], the Kd at CaM (H12 library) worked out at 208 µM.

For the compound `C[C@@H](CC(=O)N[C@H]1CCC[C@@H]1C(=O)N[C@H]1CCC[C@@H]1C(N)=O)NC(=O)[C@H]1CCC[C@@H]1NC(=O)[C@H]1CCC[C@@H]1NC(=O)C[C@H](CC(N)=O)NC(=O)[C@H]1CCC[C@@H]1NC(=O)[C@H]1CCC[C@@H]1N` [H12 NA], at CaM (H12 library), the Kd came out at 447 µM.

Consider `NC(=O)CC[C@@H](CC(=O)N[C@H]1CCC[C@@H]1C(=O)N[C@H]1CCC[C@@H]1C(=O)N[C@@H](CCC(=O)O)CC(=O)N[C@H]1CCC[C@@H]1C(=O)N[C@H]1CCC[C@@H]1C(N)=O)NC(=O)[C@H]1CCC[C@@H]1NC(=O)[C@H]1CCC[C@@H]1N` [H12 QE], for which, at CaM (H12 library), the Kd was 474 µM.

Consider `NC(=O)[C@H]1CCC[C@@H]1NC(=O)[C@H]1CCC[C@@H]1NC(=O)C[C@H](CC(=O)O)NC(=O)[C@H]1CCC[C@@H]1NC(=O)[C@H]1CCC[C@@H]1NC(=O)C[C@H](CO)NC(=O)[C@H]1CCC[C@@H]1NC(=O)[C@H]1CCC[C@@H]1N` [H12 SD], for which, at CaM (H12 library), the Kd came to 441 µM.

For the compound `CC[C@H](C)[C@@H](CC(=O)N[C@H]1CCC[C@@H]1C(=O)N[C@H]1CCC[C@@H]1C(N)=O)NC(=O)[C@H]1CCC[C@@H]1NC(=O)[C@H]1CCC[C@@H]1NC(=O)C[C@@H](NC(=O)[C@H]1CCC[C@@H]1NC(=O)[C@H]1CCC[C@@H]1N)[C@@H](C)O` [H12 TI], the Kd at CaM (H12 library) worked out at 110 µM.

Take `C[C@@H](O)[C@@H](CC(=O)N[C@H]1CCC[C@@H]1C(=O)N[C@H]1CCC[C@@H]1C(=O)N[C@@H](CCC(N)=O)CC(=O)N[C@H]1CCC[C@@H]1C(=O)N[C@H]1CCC[C@@H]1C(N)=O)NC(=O)[C@H]1CCC[C@@H]1NC(=O)[C@H]1CCC[C@@H]1N` [H12 TQ]: on CaM (H12 library), the Kd is 447 µM.

On to `CC(C)[C@@H](CC(=O)N[C@H]1CCC[C@@H]1C(=O)N[C@H]1CCC[C@@H]1C(N)=O)NC(=O)[C@H]1CCC[C@@H]1NC(=O)[C@H]1CCC[C@@H]1NC(=O)C[C@H](CC(N)=O)NC(=O)[C@H]1CCC[C@@H]1NC(=O)[C@H]1CCC[C@@H]1N` [H12 NV], for which the Kd on CaM (H12 library) was 460 µM.

With `C[C@@H](O)[C@@H](CC(=O)N[C@H]1CCC[C@@H]1C(=O)N[C@H]1CCC[C@@H]1C(=O)N[C@H](CC(=O)N[C@H]1CCC[C@@H]1C(=O)N[C@H]1CCC[C@@H]1C(N)=O)Cc1ccc(O)cc1)NC(=O)[C@H]1CCC[C@@H]1NC(=O)[C@H]1CCC[C@@H]1N` [H12 TY], the Kd on CaM (H12 library) came to 132 µM.

On to `CC(C)C[C@@H](CC(=O)N[C@H]1CCC[C@@H]1C(=O)N[C@H]1CCC[C@@H]1C(N)=O)NC(=O)[C@H]1CCC[C@@H]1NC(=O)[C@H]1CCC[C@@H]1NC(=O)C[C@@H](NC(=O)[C@H]1CCC[C@@H]1NC(=O)[C@H]1CCC[C@@H]1N)[C@@H](C)O` [H12 TL], for which, on CaM (H12 library), the Kd was 110 µM.

As for `CSCC[C@@H](CC(=O)N[C@H]1CCC[C@@H]1C(=O)N[C@H]1CCC[C@@H]1C(N)=O)NC(=O)[C@H]1CCC[C@@H]1NC(=O)[C@H]1CCC[C@@H]1NC(=O)C[C@@H](NC(=O)[C@H]1CCC[C@@H]1NC(=O)[C@H]1CCC[C@@H]1N)[C@@H](C)O` [H12 TM], the Kd on CaM (H12 library) came out at 200 µM.

In the case of `CSCC[C@@H](CC(=O)N[C@H]1CCC[C@@H]1C(=O)N[C@H]1CCC[C@@H]1C(N)=O)NC(=O)[C@H]1CCC[C@@H]1NC(=O)[C@H]1CCC[C@@H]1NC(=O)C[C@H](CCC(N)=O)NC(=O)[C@H]1CCC[C@@H]1NC(=O)[C@H]1CCC[C@@H]1N` [H12 QM], the Kd on CaM (H12 library) was determined as 364 µM.

In the case of `NC(=O)CC[C@@H](CC(=O)N[C@H]1CCC[C@@H]1C(=O)N[C@H]1CCC[C@@H]1C(=O)N[C@H](CC(=O)N[C@H]1CCC[C@@H]1C(=O)N[C@H]1CCC[C@@H]1C(N)=O)Cc1ccc(O)cc1)NC(=O)[C@H]1CCC[C@@H]1NC(=O)[C@H]1CCC[C@@H]1N` [H12 QY], the Kd on CaM (H12 library) amounted to 403 µM.

As for `CC(C)C[C@@H](CC(=O)N[C@H]1CCC[C@@H]1C(=O)N[C@H]1CCC[C@@H]1C(N)=O)NC(=O)[C@H]1CCC[C@@H]1NC(=O)[C@H]1CCC[C@@H]1NC(=O)C[C@H](CCC(N)=O)NC(=O)[C@H]1CCC[C@@H]1NC(=O)[C@H]1CCC[C@@H]1N` [H12 QL], the Kd on CaM (H12 library) is 263 µM.

As to `CC(C)[C@@H](CC(=O)N[C@H]1CCC[C@@H]1C(=O)N[C@H]1CCC[C@@H]1C(N)=O)NC(=O)[C@H]1CCC[C@@H]1NC(=O)[C@H]1CCC[C@@H]1NC(=O)C[C@H](CO)NC(=O)[C@H]1CCC[C@@H]1NC(=O)[C@H]1CCC[C@@H]1N` [H12 SV], the Kd at CaM (H12 library) is 299 µM.

For `NC(=O)[C@H]1CCCC[C@@H]1NC(=O)C[C@H](CC(=O)O)NC(=O)[C@H]1CCCC[C@@H]1NC(=O)[C@H]1CCCC[C@@H]1NC(=O)C[C@H](CO)NC(=O)[C@H]1CCCC[C@@H]1N` [H14 SD], the Kd on Gal-1 was found to be 432 µM; at CaM (H14 library), 225 µM.

The values above are taken from publication PMC8162404, “Proteomimetic surface fragments distinguish targets by function” (Chemical Science, 2020).
